# In patent US7247309B2, “Coccidiosis vaccines” (Intervet International B.V., priority 1999, dated 2007):
# System: Eimeria strains according to the invention
# Assay: Tolerance/sensitivity of the strains to anticoccidial drugs (infection of chickens with the strains and administration of drug)
# Format: in vivo
# Experimental: all four strains are tolerant to two commonly used anticoccidial ionophores: monensin (110 ppm) and salinomycin (60 ppm). The concentrations tested are commonly used concentrations. Specific tolerance levels were determined by infection of chickens with the strains and administration of ionophores.
# These four strains are tolerant for 110 ppm of monensin and for 60 ppm of salinomycin, sensitive for 1 ppm of diclazuril (see FIG. 1) and the proliferative capacity of the four strains is decreased to 76000 (see Table 1b).
structure (smiles),measurement,setting,value
N#CC(c1ccc(Cl)cc1)c1c(Cl)cc(-n2ncc(=O)[nH]c2=O)cc1Cl (stereo not drawn) [diclazuril],sensitivity of the strains to diclazuril,diclazuril 1 ppm,fully sensitive
CC[C@@]1([C@@H]2O[C@@H]([C@H]3O[C@@](O)(CO)[C@H](C)C[C@@H]3C)C[C@@H]2C)CC[C@H]([C@]2(C)CC[C@]3(C[C@H](O)[C@@H](C)[C@@H]([C@@H](C)[C@@H](OC)[C@H](C)C(=O)O)O3)O2)O1 [monensin],tolerance of the strains to monensin,"monensin 110 ppm, chickens infected with the strains",tolerant
CC[C@@H](C(=O)[C@@H](C)[C@@H](O)[C@H](C)[C@@H]1O[C@@H]([C@@H](CC)C(=O)O)CC[C@@H]1C)[C@H]1O[C@]2(C=C[C@@H](O)[C@]3(CC[C@@](C)([C@H]4CC[C@](O)(CC)[C@H](C)O4)O3)O2)[C@H](C)C[C@@H]1C [salinomycin],tolerance of the strains to salinomycin,"salinomycin 60 ppm, chickens infected with the strains",tolerant
